The subject of one experiment is Mycobacterium aurum. To be noted: surrogate for Mycobacterium tuberculosis; cited from earlier work.
For a further experiment, the system named is M. smegmatis. To be noted: cited from earlier work.
The next experiment deals with Ag85C (Mycobacterium tuberculosis, UniProt P9WQN9). In words: 4-methylumbelliferyl butyrate. It counts as biochemical.
The subject of the next experiment is M. tuberculosis. To be noted: cited from earlier work.
Experiment [1] relates to M. tuberculosis inside macrophages. To be noted: 100 µM concentration; cited from earlier work.
Another experiment concerns synthesis of TDM. To be noted: cited from earlier work.
For the next experiment, the system named is Ag85s. To be noted: screening of the NIH Clinical Collection; cited from earlier work.
[2] abbreviates: 600 nM Ag85C, 10 mM trehalose, 100 µM 4-MUB, 37 °C, inhibitor 20-320 µM.

≈ marks a conversion by molar mass, not a printed value. Read-outs that look alike come from different tables or passages of the source.

Chain of Ag85C (P9WQN9 46-340): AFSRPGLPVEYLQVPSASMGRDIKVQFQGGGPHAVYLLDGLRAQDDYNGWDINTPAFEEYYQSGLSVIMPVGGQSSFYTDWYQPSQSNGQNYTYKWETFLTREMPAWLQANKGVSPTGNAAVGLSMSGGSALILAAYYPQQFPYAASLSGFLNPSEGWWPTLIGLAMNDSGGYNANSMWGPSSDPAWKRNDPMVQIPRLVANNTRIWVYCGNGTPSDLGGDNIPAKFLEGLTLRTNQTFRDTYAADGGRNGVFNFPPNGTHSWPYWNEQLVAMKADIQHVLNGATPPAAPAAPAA

Turning to `[N-]=[N+]=NC[C@H]1O[C@H](O[C@H]2O[C@H](CO)[C@@H](O)[C@H](O)[C@H]2O)[C@H](O)[C@@H](O)[C@@H]1O` [6-azido-6-deoxytrehalose], the “growth inhibition of Mycobacterium aurum” value with Mycobacterium aurum is recorded as “completely inhibit the growth”.
What is called MIC is the least concentration at which growth counts as inhibited. For the compound `N#Cc1c(N)sc2c1CCCC2` [Compound 1b, 2-Amino-4,5,6,7-tetrahydrobenzo[b]thiophene-3-carbonitrile], the MIC with M. smegmatis was 50 to 100 µg/mL.
The term Ki denotes a measure of affinity in units of concentration, obtained from inhibition or displacement. On Ag85C (setting [2]), `CCOC(=O)c1c(NC(=O)CSCC2OC(OC)C(O)C2O)sc2c1CCCC2` [Compound 13a, Ethyl 2-(methyl 5-thio-α-D-arabinofuranoside-5-S-yl)acetamido-4,5,6,7-tetrahydrobenzo[b]thiophene-3-carboxylate] showed a Ki of 18.2 µM.
The same measure, in the same setting: as for `CO[C@H]1O[C@H](CSCC(=O)Nc2sc3c(c2C#N)CCCC3)[C@@H](O)[C@@H]1O` [Compound 13b, N-(3-cyano-4,5,6,7-tetrahydrobenzo[b]thiophen-2-yl)-2-(methyl 5-thio-α-D-arabinofuranoside-5-S-yl)acetamide], the figure is 34.8 µM; as for `CCOC(=O)c1c(NC(=O)C(CC)SC[C@H]2O[C@H](OC)[C@@H](O)[C@@H]2O)sc2c1CCCC2` (stereo partly drawn) [Compound 13c, Ethyl 2-(methyl 5-thio-α-D-arabinofuranoside-5-S-yl)butamido-4,5,6,7-tetrahydrobenzo[b]thiophene-3-carboxylate], 71 µM.
In the case of `COC1O[C@H](CSCCn2c(=O)[nH]c3sc4c(c3c2=O)CCCC4)[C@@H](O)[C@@H]1O` (stereo partly drawn) [Compound 14, Methyl 5-S-[2-(2,4-dioxo-1,4,5,6,7,8-hexahydro[1]benzothieno[2,3-d]-pyrimidin-3(2H)-yl)ethyl]-5-thioarabinofuranoside], at Ag85C, the Ki stood at 47.1 µM.
On to `CCCC1CCc2c(sc(N)c2C#N)C1` (centres unmarked) [Compound I3-AG85, 2-amino-6-propyl-4,5,6,7-tetrahydro-1-benzothiophene-3-carbonitrile], for which, in the experiment with M. tuberculosis (7 MDR and 3 XDR M. tuberculosis strains), the “concentration inhibiting growth of MDR and XDR strains” value is at most 200 µM. Also, in the experiment on M. tuberculosis (M. tuberculosis), the MIC was 100 µg/mL (≈ 454 µM). Also, the “survival of M. tuberculosis inside macrophages” value in experiment [1] was “reduced survival”. Also, in the experiment with synthesis of TDM, the “inhibition of the synthesis of TDM” value is “inhibit the synthesis of TDM”.
With `O=c1c2ccccc2[se]n1-c1ccccc1` [ebselen], the “inhibition of Ag85s” value in the experiment on Ag85s was “nM inhibitor”.
